Results on ten compounds are retold here after patent US8952025B2, “Multifunctional radical quenchers and their uses” (Arizona Board of Regents, A Body Corporate of the State of …, priority 2010, dated 2015).

Data set [1] deals with CEM cells. Put plainly: Reactive oxygen species (ROS) assay, DCFH-DA, DEM-treated cells. It counts as cell-based, human. The conditions noted are these: for suppression of ROS (DCFH-DA): 0.25 μM for 15 hours, DEM 40 min, CCRF-CEM cells. An excerpt: Cellular ROS production can be monitored using 2′,7′-dichlorodihydrofluorescein diacetate (DCFH-DA) (LeBel et al. (1992) Chem. Res. Toxicol. 5, 227-231) (Molecular Probes, Eugene, Oreg., USA), a membrane permeable and oxidant-sensitive fluorescent dye. DCFH-DA is a non-fluorescent derivative of fluorescein that emits fluorescence after being oxidized by hydrogen peroxide and other ROS. The emitted fluorescence is directly proportional to the concentration of hydrogen peroxide. DCFH-DA is nonionic and nonpolar and is easily taken up by cells. Once inside the cell, DCFH-DA is hydrolyzed by cellular esterases to non-fluorescent DCFH which traps the dye in the cell. In the presence of ROS including hydrogen peroxide, DCFH is oxidized to the highly fluorescent compound dichlorofluorescein (DCF). The intracellular DCF fluorescence is used as an index of cellular ROS production.
Cellular oxidative stress was induced by pharmacological depletion of glutathione (GSH) using the chemical diethylmaleate (DEM). ROS production was assessed by monitoring DCF fluorescence. Leukemic CEM cells (ATCC®, catalogue number CRL-2264) were cultured in RPMI (GIBCO, Grand island, N.Y., USA) with 10% FCS, 2 mM glutamine (HyClone, South Logan, Utah, USA) and 1% penicillin-streptomycin mix antibiotics (Cellgro, Manassan, Va., USA) supplements. Cells were maintained in the log phase at a concentration of between 1×10^5 and 1×10^6 cells/mL. CEM cells (1×10^6 cell/mL) were plated (1 mL) in twelve well plate and treated with the invention compounds (final concentration 1 and 5 μM), and incubated for two hours at 37° C., 5% CO2. The compounds tested were prepared by first making stock solutions (2.5 mM) in dimethylsulfoxide (DMSO). Cells were treated with 5 mM DEM for 30 minutes and collected by centrifugation at 300×g for 3 min and then washed twice with Hanks' Balanced Salt Solution (HSSB) buffer (Sigma, St. Louis, Mo. USA). Cells were resuspended in HSSB buffer+10 mM glucose and incubated at 37° C. in the dark for 20 min with 10 μM DCFH-DA. Cells were collected by centrifugation at 300×g for 3 min and then washed twice with HSSB buffer. The samples were analyzed immediately by flow cytometry (Becton-Dickinson FACS Caliber), (Cell Quest software, BD Biosciences) using 488 nm excitation laser and FL1-H channel 538 nm emission filter. In each analysis, 10,000 events were recorded after cell debris were electronically gated out. Results obtained were verified by repeating experiments N=3 independent experiments. Authentic hydrogen peroxide was used as a positive control.

Data set [2] has as its system CEM leukemia cells. Briefly: Mitochondrial membrane potential (Δψm) assay, TMRM, FACS. It counts as cell-based, human. The conditions noted are these: pretreatment 0.5, 1 or 2.5 μM overnight, DEM. The method, then: Measurement of Mitochondrial Membrane Potential (Δψm)(FACS). For the determination of Δψm, CEM leukemia cells were pre-treated with or without the test compounds. The cells were treated with 5 mM DEM for 120 minutes, collected by centrifugation at 300×g for 3 minutes and then washed twice with phosphate buffered saline. The cells were re-suspended in HSSB buffer and incubated at 37° C. in the dark for 15 minutes with 250 nM TMRM (a cationic dye which accumulates within mitochondria in accordance with the Δψm Nernst potential). Cells were collected by centrifugation at 300×g for 3 minutes and then washed twice with phosphate buffered saline. The samples were analyzed immediately by flow cytometry using 488 nm excitation laser and the FL2-H channel. The results obtained were verified in three independent experiments. The protonophore FCCP (30 μM) was used to dissipate the chemiosmotic proton gradient (ΔμH^+) and served as a control for loss of Δψm. In each analysis, 10,000 events were recorded.

The test system of data set [3] is CEM cells. Put plainly: Trypan blue cell viability assay, DEM-treated cells. It counts as cell-based, human. As to conditions: overnight incubation, then 5 mM DEM, 3 h. As to the method: Cell viability determined by trypan blue exclusion assay: This technique was used to assess the cytoprotective effects of the invention compounds in cultured cells pharmacologically treated to induce cell death by GSH depletion. DEM was used to deplete cellular GSH and induce oxidative stress. The viability of DEM-treated CEM cells was determined by their ability to exclude the dye trypan blue. Viable cells exclude trypan blue; whereas, non-viable cells take up the dye and stain blue. Briefly, CEM cells were grown in RPMI 1640 medium (GIBCO, Grand island, N.Y., USA) supplemented with 10% fetal calf serum, 2 mM glutamine (HyClone, South Logan, Utah, USA), 1% penicillin-streptomycin mix (Cellgro, Manassan, Va., USA). Cells were seeded at a density of 1×10^6 cells/mL and treated with different concentrations of the invention compounds. Cells were incubated at 37° C. in a humidified atmosphere of 5% CO2 in air for three hours with 5 mM DEM. Cell viability was determined by staining cells with 0.4% trypan blue using a hemacytometer. At least 500 cells were counted for each experimental group. At the time of assay, >95% of DEM-treated cells were trypan blue positive; whereas, in non-DEM treated control cell cultures >95% cells were viable. Cell viability was expressed as the percentage of control. Data are expressed as means±S.E.M (n=3).

The nature of data set [4]: C11-BODIPY581/591 oxidation lipid peroxidation assay in liposomes. The conditions noted are these: 10 mM AAPH, phospholipid liposomes, phosphate buffer, 40° C. The method, then: To overcome the problem of spectral overlap using cis-parinaric acid, a fluorescence assay for lipid peroxidation using a lipophilic probe belonging to the BODIPY class of fluorescent dyes was used. C11-BODIPY^581/591 (4,4-difluoro-5(4-phenyl-1,3-butadienyl)-4-bora-3a,4a-diaza-s-indacene-3-propionic acid) fluorescence shifts from red to green upon oxidation. C11-BODIPY^581/591 (Molecular Probes, Eugene, Oreg., USA) stock solution concentrations were determined by measuring the absorption of C11-BODIPY^581/591 at 582 nm using a molar extinction coefficient of 140,000 mol^−1 cm^−1(R. P. Haugland, (1999) Handbook of Fluorescent Probes and Research Chemicals, Molecular Probes, Inc., Eugene, Oreg.). The lipid peroxidation inducer 2,2′-Azobis (2-amidino-propane dihydrochloride) (AAPH) and the antioxidant compound α-tocopherol were obtained from Sigma (St. Louis, Mo., USA). Phospholipid bilayers were prepared from 1-stearoyl-2-oleoyl-phosphatidylcholine (SOPC) and 1,2-dilinoleoyl-phosphatidylcholine (DLPC) and were purchased from Avanti® polar lipids, INC (Alabaster, Ala., USA).
Phosphotidylcholine (PC) liposomes were prepared as described before (Guey-Shuang et al. (1982) Lipids. 17, 403-413). Briefly, DLPC (25 mg) and SOPC (25 mg) were dissolved in chloroform and the solvent was removed by nitrogen evaporation (˜2 hours to give a thin film of PC in a round bottom flask. The lipid film was hydrated with 50 mL of 10 mM Tris-HCl (pH 7.4), 100 mM KCl, shaken and sonicated for 15 seconds. The liposomes obtained were filtered several times through 0.2 μM membrane filter.
C11 BODIPY^581/591 was incorporated into liposomes and oxidized by peroxyl radicals derived from the decomposition of AAPH in presence and absence of the compounds. […] Liposomes were pre-incubated for 10 min with 200 nM C11 BODIPY^581/591 to allow their incorporation into the lipid phase of the liposomes. After the addition of AAPH (10 mM) the decay of red fluorescence was followed at λ exc=570 nm, λ em=600 nm. Relative fluorescence units were normalized to 100% intensity. Results obtained were verified by repeating experiments N=3 independent experiments.

Data set [5] concerns CEM leukemia cells. Put plainly: C11-BODIPY581/591 oxidation in cell culture (lipid peroxidation). It counts as cell-based, human. As to conditions: 2.5 or 1 μM, pretreatment 4 or 24 hours, glutathione depleted. The method, then: Lipid peroxidation in CEM leukemia cells was detected by utilizing the oxidant-sensitive lipophilic probe C11 BODIPY^581/591. Briefly, CEM cells (5×10^5 cell/mL) were treated with the test compounds at final concentrations of 1 and 2.5 μM, and incubated at 37° C. for 4 or 24 h in a humidified atmosphere containing 5% CO2 in air. Cells were treated with 500 nM C11 BODIPY^581/591 in phenol red-free RPMI-1640 media and incubated at 37° C. in the dark for 30 minutes. The cells were washed twice with phosphate buffered saline and oxidative stress was induced with 5 mM DEM in phenol red-free RPMI-1640 media for 90 minutes. Treated cells were collected by centrifugation at 300×g for 3 minutes and then washed twice with phosphate buffered saline. Cells were resuspended in 250 μL of phosphate buffered saline and were analyzed by FACS (FACS Calibur flow cytometer, Becton Dickinson) to monitor the change in intensity of the C11 BODIPY^581/591-green (oxidized) fluorescence signal.

Data set [6] concerns Human CEM leukemia cells. Briefly: Live/Dead Viability/Cytotoxicity flow cytometry assay. It counts as cell-based. The conditions noted are these: overnight incubation, then DEM 3 hours. The method, then: Cell viability and cytotoxicity were determined by simultaneous staining live and dead cells using a two-color fluorescence assay, the Live/Dead® Viability/Cytotoxicity Kit (Molecular Probes). This assay is used to measure two recognized parameters of cell viability, intracellular esterase activity and plasma integrity. The membrane-impermeant DNA dye ethidium homodimer-1 (EthD-1) was used to identify dead cells whose plasma membrane integrity was disrupted. The membrane-permeant dye calcein-AM was used to label live cells. It penetrates into the cells where it is metabolized by cytoplasmic esterases and becomes a fluorescent but membrane-impermeant probe which is retained in viable cells. Human CEM leukemia cells were incubated overnight in RPMI medium (control) and in the presence of test compound and then treated with DEM for 3 hours. Cells were stained with 0.2 μM calcein-AM and 0.4 μM EthD-1. After 15 minutes, flow cytometry analysis was carried out using excitation at 488 nm. The green-fluorescent (539 nm) FL1-H channel, live-cell population appears in the lower right quadrant and the red-fluorescent (585 nm) FL2-H channel dead-cell population appears in the upper left quadrant (FIG. 11). In each analysis, 10,000 events were recorded. Results obtained were verified in three independent experiments.
For orientation: A flow cytometer gives signals particle by particle.

“Also recorded” adds a separate entry of the source.

Take `COc1nc(N(C)C)nc(CCCCCCCCCCO)c1O` [Compound D, 2-(dimethylamino)-4-(10-hydroxydecyl)-6-methoxypyrimidin-5-ol]: the “suppression of ROS production (DCF fluorescence)” value in data set [1] (pretreatment 0.5, 1 or 5 μM, DEM) is reported as “most effective compound in suppressing ROS; also recorded: very effective in suppressing ROS”. Moreover, the “maintaining mitochondrial membrane potential Δψm” value in data set [2] is recorded as “the most effective in maintaining mitochondrial membrane potential; also recorded: very favorable properties”. In addition, in data set [3], the “maintaining cell viability (trypan blue exclusion)” value is reported as “quite effective in maintaining cell viability following DEM treatment, with D being the most effective; also recorded: superior to idebenone in maintaining the viability of DEM-treated cells”.

Usually melting point stands for the temperature of the solid-liquid transition. The compound `COc1cc(C)c(O)c(CCCCCCCCCCO)n1` [Compound F, 2-(10-hydroxydecyl)-6-methoxy-4-methylpyridin-3-ol] gave a melting point of 80 to 81 °C.

In the case of `CCCCCc1nc(N(C)C)nc(C)c1O` [Compound H, 2-(dimethylamino)-4-methyl-6-pentylpyrimidin-5-ol], the melting point was 61 to 62 °C.

`CCCCCCCCCCc1nc(N(C)C)nc(C)c1O` [Compound I, 4-decyl-2-(dimethylamino)-6-methylpyrimidin-5-ol] gave a melting point of 71 to 72 °C. For the same compound, in data set [1], the “suppression of ROS (DCFH-DA)” value is “most effective compounds at suppressing ROS in this assay; also recorded: especially effective”. On the same counts, the results for `CCCCCCCCCCCCCCCCc1nc(N(C)C)nc(C)c1O` [Compound J, 2-(dimethylamino)-4-hexadecyl-6-methylpyrimidin-5-ol] are 86 to 87 °C and “most effective compounds at suppressing ROS in this assay; also recorded: especially effective”.

Compound `Cc1nc(N)nc(CCCCCCCCCCO)c1O` [Example 10, 2-amino-4-(10-hydroxydecyl)-6-methylpyrimidin-5-ol] came in with a melting point of 103 to 104 °C. Regarding `Cc1nc(N(C)C)nc(C)c1O` [compound 12, 2-N,N-dimethylamino-5-hydroxy-4,6-dimethylpyrimidine], the “quenching of lipid peroxidation (retention of C11-BODIPY581/591 fluorescence)” value in data set [4] was “less active than its counterpart compound A”.

For the compound `CC(=O)Oc1c(C)nc2c(c1CC[C@](C)(O)CCC[C@H](C)CCC[C@H](C)CCCC(C)C)CCN2C` [compound 35, 4-((3R,7R,11R)-3-hydroxy-3,7,11,15-tetramethylhexadecyl)-1,6-dimethyl-2,3-dihydro-1H-pyrrolo[2,3-b]pyridine-5-yl acetate], in data set [3], the “maintaining cell viability (trypan blue exclusion)” value was “both effective in maintaining cell viability following treatment with DEM, with the acetate of compound C being somewhat more effective”. For the compound `COc1c(O)c(C)c(CCCCCCCCCCO)c(O)c1OC` [idebenol, reference compound], the “protection against ROS production (DCF fluorescence)” value in data set [1] (compound 1 μM, 5 mM DEM) was “less effective at this concentration”. Turning to `Cc1c(C)c2c(c(C)c1O)CCC(C)(C(=O)O)O2` (centres unmarked) [trolox, reference compound], the “protection against lipid peroxidation in cells (C11-BODIPY581/591 green fluorescence)” value in data set [5] is given as “no protection”. Also, the “protection against ROS production (DCF fluorescence)” value in data set [1] (5 μM, pretreatment 4 or 24 h) was “no protection”. Besides, the “maintaining cell viability (trypan blue exclusion)” value in data set [3] was “quite ineffective”. In addition, in data set [6], the “maintaining cell viability (Live/Dead kit, flow cytometry)” value was “quite ineffective”.
